Experimental data: ChEMBL document CHEMBL5365466, “Discovery of Triazolyl Derivatives of Cucurbitacin B Targeting IGF2BP1 against Non-Small Cell Lung Cancer” (J Med Chem, 2023)
Calls of active or inactive are those of the source. The calls are words filed in the database; no cut-off is given here.

Tests used:
[1] = Selectivity index, ratio of IC50 for antiproliferative activity against human L02 cells to IC50 for antiproliferative activity against human MDA-MB-231 cells; type: toxicity, cell-based; conditions: L02 cells versus MDA-MB-231 cells, read-out: Ratio IC50
A549 [2] = experiment: Antiproliferative activity against human A549 cells with IGF2BP1 knockdown assessed as cell growth inhibition incubated for 72 hrs by SRB assay; type: functional, cell-based; conditions: A549, 72 h
A549 [3] = experiment: Induction of apoptosis in human A549 cells assessed as downregulation of BCL-xl expression incubated for 48 hrs by Western blotting analysis; type: functional, cell-based
A549 [4] = experiment: Induction of cell cycle arrest in human A549 cells assessed as accumulation of cells at S phase at 0.2 uM incubated for 24 hrs by PI staining based flow cytometric analysis (reference value: 23 %); type: functional
[5] = target: Insulin-like growth factor 2 mRNA-binding protein 1 (Homo sapiens, UniProt Q9NZI8); experiment: Binding affinity to human recombinant IGF2BP1 assessed as dissociation constant by microscale thermophoresis analysis
[6] = Acute toxicity in BALB/c mouse xenografted with human A549 cells assessed as change in body weight at 0.5 mg/kg,ip administrated for 21 days; type: organism-based; conditions: in vivo, 504 h, time 21 day
A549 [7] = experiment: Induction of autophagy in human A549 cells assessed as upregulation of Beclin-1 expression at 0.1 to 0.5 uM incubated for 48 hrs by Western blotting analysis; type: functional, cell-based; conditions: dose 0.1-0.5 µM
A549 [8] = experiment: Induction of apoptosis in human A549 cells incubated for 48 hrs by Annexin V-FITC/PI staining based flow cytometric analysis; type: functional, cell-based
SK-OV-3 = experiment: Antiproliferative activity against human SK-OV-3 cells assessed as cell growth inhibition incubated for 72 hrs by SRB assay; type: functional, cell-based; conditions: SK-OV-3, 72 h
A549 [9] = experiment: Antitumor activity against human A549 cells xenografted in BALB/c mouse assessed as tumor growth inhibition at 0.5 mg/kg,ip administrated for 21 days; type: functional; conditions: A549, 504 h, time 21 day, read-out: TGI
[10] = Selectivity index, ratio of IC50 for antiproliferative activity against human L02 cells to IC50 for antiproliferative activity against human HCT-116 cells; type: toxicity, cell-based; conditions: L02 cells versus HCT-116 cells, read-out: Ratio IC50
A549 [11] = experiment: Induction of apoptosis in human A549 cells at 0.5 uM incubated for 48 hrs by Annexin V-FITC/PI staining based flow cytometric analysis; type: functional
[12] = Selectivity index, ratio of IC50 for antiproliferative activity against human L02 cells to IC50 for antiproliferative activity against human HeLa cells; type: toxicity, cell-based; conditions: L02 cells versus HeLa cells, read-out: Ratio IC50
[13] = Antiproliferative activity against human L02 cells assessed as cell growth inhibition incubated for 72 hrs by SRB assay; type: toxicity, cell-based
HeLa = experiment: Antiproliferative activity against human HeLa cells assessed as cell growth inhibition incubated for 72 hrs by SRB assay; type: functional, cell-based
MCF7 = experiment: Antiproliferative activity against human MCF7 cells assessed as cell growth inhibition incubated for 72 hrs by SRB assay; type: functional, cell-based; conditions: MCF7, 72 h
A549 [14] = experiment: Antitumor activity against human A549 cells xenografted in BALB/c mouse assessed as increase in apoptosis at 0.5 mg/kg,ip administrated for 21 days by TUNEL staining based analysis; type: functional, organism-based; conditions: time 21.0 day
A549 [15] = experiment: Induction of apoptosis in human A549 cells assessed as downregulation of Cyclin D1 expression incubated for 48 hrs by Western blotting analysis; type: functional, cell-based
A549 [16] = experiment: Antitumor activity against human A549 cells xenografted in BALB/c mouse assessed as reduction in Ki67 expression in tumor at 0.5 mg/kg,ip administrated for 21 days by immunohistochemical analysis; type: functional, organism-based; conditions: time 21.0 day
[17] = Antiproliferative activity against human L02 cells assessed as cell growth inhibition at 0.1 uM incubated for 72 hrs by SRB assay; type: toxicity, cell-based
A549 [18] = experiment: Induction of cell cycle arrest in human A549 cells assessed as accumulation of cells at S phase at 0.5 uM incubated for 24 hrs by PI staining based flow cytometric analysis (reference value: 23 %); type: functional
A549 [19] = experiment: Antiproliferative activity against human A549 cells assessed as cell growth inhibition incubated for 72 hrs by SRB assay; type: functional, cell-based; conditions: A549, 72 h
A549 [20] = experiment: Induction of autophagy in human A549 cells assessed as upregulation of LC3II/LC3I ratio at 0.1 to 0.5 uM incubated for 48 hrs by Western blotting analysis; type: functional, cell-based; conditions: dose 0.1-0.5 µM
[21] = Selectivity index, ratio of IC50 for antiproliferative activity against human L02 cells to IC50 for antiproliferative activity against human PANC-1 cells
MDA-MB-231 = experiment: Antiproliferative activity against human MDA-MB-231 cells assessed as cell growth inhibition incubated for 72 hrs by SRB assay; type: functional, cell-based; conditions: MDA-MB-231, 72 h

Sequence of Insulin-like growth factor 2 mRNA-binding protein 1 (Q9NZI8 whole entry): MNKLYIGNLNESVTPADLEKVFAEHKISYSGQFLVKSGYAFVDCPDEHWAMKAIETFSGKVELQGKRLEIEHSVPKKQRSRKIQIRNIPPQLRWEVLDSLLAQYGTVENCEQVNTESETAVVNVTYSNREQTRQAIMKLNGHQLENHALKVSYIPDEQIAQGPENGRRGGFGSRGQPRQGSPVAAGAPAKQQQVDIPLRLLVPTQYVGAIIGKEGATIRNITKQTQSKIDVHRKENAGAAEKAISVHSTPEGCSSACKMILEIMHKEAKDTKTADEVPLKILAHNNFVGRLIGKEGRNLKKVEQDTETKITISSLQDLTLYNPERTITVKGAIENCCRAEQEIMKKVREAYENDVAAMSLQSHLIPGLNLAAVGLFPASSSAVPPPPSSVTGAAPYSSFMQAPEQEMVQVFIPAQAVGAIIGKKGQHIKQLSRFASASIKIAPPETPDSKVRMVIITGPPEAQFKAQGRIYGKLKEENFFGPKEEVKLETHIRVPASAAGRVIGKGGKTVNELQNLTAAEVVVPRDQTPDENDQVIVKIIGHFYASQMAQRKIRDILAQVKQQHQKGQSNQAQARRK

SMILES: CC(=O)OC(C)(C)/C=C/C(=O)[C@](C)(O)[C@H]1[C@H](O)C[C@@]2(C)[C@@H]3CC=C4[C@@H](C[C@H](OC(=O)Cn5ncn(-c6ccc(F)cc6)c5=O)C(=O)C4(C)C)[C@]3(C)C(=O)C[C@]12C
- selectivity ratio [1]: 2.04
- IC50 (A549 [2]): 92 nM
- Activity (A549 [3]): Dose-Dependent Effect
- Activity (A549 [4]): 16.6%
- Kd [5]: 10.9 nM
- Activity [6]: Non-Toxic
- Activity (A549 [7]): inactive
- Activity (A549 [8]): Dose-Dependent Effect
- IC50 (SK-OV-3): 54 nM
- inhibition in vivo at 0.5 mg/kg (A549 [9]): 80%
- selectivity ratio [10]: 2.94
- Activity (A549 [11]): 36.7%
- selectivity ratio [12]: 6.67
- IC50 at 72 h [13]: 100 nM
- IC50 (HeLa): 15 nM
- IC50 (MCF7): 56 nM
- Activity (A549 [14]): Active
- Activity (A549 [15]): Dose-Dependent Effect
- Activity (A549 [16]): Active
- inhibition at 72 h, 0.1 µM [17]: 50.5%
- Activity (A549 [18]): 8.96%
- IC50 (A549 [19]): 9 nM
- Activity (A549 [20]): Active
- Ratio IC50 [21]: 1.14
- IC50 (MDA-MB-231): 49 nM
